From patent US20260250318A1, “COMPOSITIONS AND METHODS FOR CROSSING THE BLOOD BRAIN BARRIER” (VOYAGER THERAPEUTICS, INC., priority 2022, published 2026)

Columns and labels:
[1] = tested on: brains, heart, liver, muscle, and DRG of the NHPs; assay: Maturation of TTM-001 and TTM-002 capsids, NGS enrichment in NHP tissues; assay type: in vivo; details: relative to AAV9 control
Method in brief: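 Variants carry mutations within and flanking the loop IV peptide insert: positions 450–466 were triplet-randomized, while positions 449–466 received low-frequency point mutations. The combined pool went into two NHPs, and each peptide was scored by NGS enrichment ratio against AAV9.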

[2] = tested on: brain; assay: Matured TTM-001 and TTM-002 variants, NGS enrichment in mouse brain; assay type: in vivo, mice; details: relative to AAV9 control
[3] = NGS fold-enrichment, DRG of NHPs
[4] = NGS fold-enrichment, RNA, brain of NHPs
[5] = NGS fold-enrichment, heart of NHPs
[6] = NGS fold-enrichment, liver DNA of NHPs
[7] = NGS fold-enrichment, liver RNA of NHPs
[8] = NGS fold-enrichment, muscle of NHPs
[9] = NGS fold-enrichment, brain of mice
[10] = NGS fold-enrichment of matured AAV capsid variants, NHP brain, RNA
[11] = NGS fold-enrichment of RNA, NHP brain
[12] = NGS fold-enrichment, NHP liver DNA
[13] = NGS fold-enrichment, NHP liver RNA
[14] = NGS fold-enrichment, NHP muscle
[15] = NGS fold-enrichment, mouse brain

| Sequence | Fold Enrichment relative to AAV9, DRG (NHP) [1, 3] | Fold Enrichment relative to AAV9, Brain (NHP) [1, 4] | Fold Enrichment relative to AAV9, Heart (NHP) [1, 5] | Fold Enrichment relative to AAV9, Liver DNA (NHP) [1, 6] | Fold Enrichment relative to AAV9, Liver RNA (NHP) [1, 7] | Fold Enrichment relative to AAV9, Muscle (NHP) [1, 8] | Fold Enrichment relative to AAV9, Brain (Mouse) [2, 9] | Fold Enrichment relative to AAV9, Brain (NHP) [1, 10] | Fold Enrichment relative to AAV9, DRG (NHP) ([1]; NHP DRG) | Fold Enrichment relative to AAV9, Heart (NHP) ([1]; NHP heart) | Fold Enrichment relative to AAV9, Liver DNA (NHP) ([1]; NHP liver, DNA) | Fold Enrichment relative to AAV9, Liver RNA (NHP) ([1]; NHP liver, RNA) | Fold Enrichment relative to AAV9, Muscle (NHP) ([1]; NHP muscle) | Fold Enrichment relative to AAV9, Brain (Mouse) ([2]; mouse brain) | Fold Enrichment relative to AAV9, Brain (NHP) [1, 11] | Fold Enrichment relative to AAV9, DRG (NHP) ([1]; NGS fold-enrichment, NHP DRG) | Fold Enrichment relative to AAV9, Heart (NHP) ([1]; NGS fold-enrichment, NHP heart) | Fold Enrichment relative to AAV9, Liver DNA (NHP) [1, 12] | Fold Enrichment relative to AAV9, Liver RNA (NHP) [1, 13] | Fold Enrichment relative to AAV9, Muscle (NHP) [1, 14] | further results |
| --- | --- | --- | --- | --- | --- | --- | --- | --- | --- | --- | --- | --- | --- | --- | --- | --- | --- | --- | --- | --- | --- |
| KTINGSGSPHSKAQERPT | 0.000 fold | 63.460 fold | 0.011 fold | 0.173 fold | 0.810 fold | 0.000 fold | 57.506 fold | – | – | – | – | – | – | – | – | – | – | – | – | – | – |
| KTINGSGSPHSKAQYQNT | – | – | – | – | – | – | – | 50.099 fold | 0.000 fold | 0.008 fold | 0.119 fold | 0.017 fold | 0.000 fold | 71.846 fold | – | – | – | – | – | – | – |
| KNTNGSGSPHSKAQNQQT | – | – | – | – | – | – | – | – | – | – | – | – | – | – | 78.445 fold | 0.000 fold | 0.000 fold | 0.177 fold | 0.571 fold | 0.000 fold | Fold Enrichment relative to AAV9, Brain (Mouse) [2, 15]: 89.719 fold |
| KTINGSGSPHGWVQNQQT | 0.000 fold | 97.122 fold | 0.000 fold | 1.975 fold | 1.240 fold | 0.000 fold | 290.720 fold | – | – | – | – | – | – | – | 97.122 fold | 0.000 fold | 0.000 fold | 1.975 fold | 1.240 fold | 0.000 fold | Fold Enrichment relative to AAV9, Brain (Mouse) [2, 15]: 290.720 fold |
| KTINGSGSPHSKAQGHHT | – | – | – | – | – | – | – | 56.559 fold | 0.000 fold | 0.000 fold | 0.117 fold | 0.632 fold | 0.000 fold | 71.050 fold | – | – | – | – | – | – | – |
| KTVNGSGSPHSKARDQQT | 0.123 fold | 124.789 fold | 0.039 fold | 0.454 fold | 0.569 fold | 0.312 fold | 132.137 fold | – | – | – | – | – | – | – | 124.789 fold | 0.123 fold | 0.039 fold | 0.454 fold | 0.569 fold | 0.312 fold | Fold Enrichment relative to AAV9, Brain (Mouse) [2, 15]: 132.137 fold |
| KTINGSGSPHSKLKSQQT | – | – | – | – | – | – | – | 50.368 fold | 0.000 fold | 0.296 fold | 1.096 fold | 1.796 fold | 0.000 fold | 95.240 fold | – | – | – | – | – | – | – |
| KTINGSGSPHSKAQMPNT | – | – | – | – | – | – | – | 52.408 fold | 0.084 fold | 0.036 fold | 0.359 fold | 0.057 fold | 0.025 fold | 66.040 fold | – | – | – | – | – | – | – |
| KTENVSGSPHSKAQNQQT | 0.000 fold | 88.506 fold | 0.000 fold | 0.112 fold | 0.964 fold | 0.000 fold | 108.591 fold | – | – | – | – | – | – | – | 88.506 fold | 0.000 fold | 0.000 fold | 0.112 fold | 0.964 fold | 0.000 fold | Fold Enrichment relative to AAV9, Brain (Mouse) [2, 15]: 108.591 fold |
| KNADGSGSPHSKAQNQQT | 0.000 fold | 60.944 fold | 0.000 fold | 0.085 fold | 1.239 fold | 0.000 fold | 104.503 fold | – | – | – | – | – | – | – | – | – | – | – | – | – | – |
| KTTNGHDSPHKSGQNQQG | – | – | – | – | – | – | – | – | – | – | – | – | – | – | 85.113 fold | 0.000 fold | 0.107 fold | 0.017 fold | 0.000 fold | 0.000 fold | Fold Enrichment relative to AAV9, Brain (Mouse) [2, 15]: 10.555 fold |
| KTDKMSGSPHSKAQNQQT | 0.000 fold | 68.167 fold | 0.000 fold | 0.205 fold | 0.017 fold | 0.000 fold | 88.234 fold | – | – | – | – | – | – | – | – | – | – | – | – | – | – |
| KTINGSGSPHSKAQPAKT | 0.331 fold | 111.472 fold | 0.000 fold | 1.796 fold | 0.044 fold | 1.089 fold | 215.275 fold | – | – | – | – | – | – | – | 111.472 fold | 0.331 fold | 0.000 fold | 1.796 fold | 0.044 fold | 1.089 fold | Fold Enrichment relative to AAV9, Brain (Mouse) [2, 15]: 215.275 fold |
| KTCNASGSPHSKAQNQQT | – | – | – | – | – | – | – | 52.998 fold | 0.000 fold | 0.011 fold | 0.141 fold | 0.897 fold | 0.000 fold | 67.934 fold | – | – | – | – | – | – | – |
| KTINGSGSPHSKSQSQLT | – | – | – | – | – | – | – | 55.430 fold | 0.000 fold | 0.035 fold | 0.013 fold | 0.050 fold | 0.000 fold | 125.577 fold | – | – | – | – | – | – | – |
